{"source": "paper PMC12030627", "about": "“Radioiodinated Bicyclic RGD Peptide Derivatives for Enhanced Tumor Accumulation” (Pharmaceuticals, 2025)", "test": "Biodistribution in U-87 MG tumor-bearing mice", "format": "in vivo, BALB/c nu-nu mice", "conditions": "male, BALB/c nu-nu, mouse, iv, 37 kBq, total radioactivity; for tissue uptake at 5 min: 5 min after i.v. administration; for tissue uptake at 5 min / tissue uptake at 0.5 h / tissue uptake at 1 h / tissue uptake at 2 h / tissue uptake at 6 h / tissue uptake at 12 h / tissue uptake at 24 h: U-87 MG-bearing mice, mean ± SD, n = 3; for tissue uptake at 0.5 h: 30 min after i.v. administration; for tissue uptake at 1 h: 1 h after i.v. administration; for tissue uptake at 2 h: 2 h after i.v. administration; for tissue uptake at 6 h: 6 h after i.v. administration; for tissue uptake at 12 h: 12 h after i.v. administration; for tissue uptake at 24 h: 24 h after i.v. administration", "in_short": "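Male BALB/c nu/nu mice bearing subcutaneous U-87 MG (right leg), or also A549 (left leg), tumors ~10 mm; 37 kBq radiotracer given IV in PBS-0.1% Tween 80. Single-tumor mice sampled 5 min–24 h, co-implanted mice at 2 h (or 30 min–4 h for dimer); organ radioactivity counted by NaI scintillation, expressed as %ID/g.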", "key": {"[1]": {"conditions": "U-87 MG tumor, read-out: Radioactivity in U-87 MG tumor"}, "[2]": {"conditions": "blood, read-out: Radioactivity in blood"}, "[3]": {"conditions": "bone, read-out: Radioactivity in bone"}, "[4]": {"conditions": "brain, read-out: Radioactivity in brain"}, "[5]": {"conditions": "heart, read-out: Radioactivity in heart"}, "[6]": {"conditions": "kidneys, read-out: Radioactivity in kidneys"}, "[7]": {"conditions": "large intestine, read-out: Radioactivity in large intestine"}, "[8]": {"conditions": "liver, read-out: Radioactivity in liver"}}, "note": "Where two headings read alike, the source gives them in different places. Starred links: 1 amine or outer side, 2 acyl side, 3 side chain; linkers in the order of their positions; H or OH if unused. Positions of bridges follow the written chain, without caps; N, C: chain ends. Non-standard residues stand in square brackets, D forms with d. Residues, ends and D or L forms follow the SMILES beside them. *: point of attachment. TBMB = c1c(C[*:1])cc(C[*:3])cc1C[*:2]; Palmitoyl = CCCCCCCCCCCCCCCC(=O)*; Benzoyl(3-I) = O=C(c1cccc(I)c1)*; 4Abz = Nc1ccc(C(=O)O)cc1"}
{"smiles": "CCCCCCCCCCCCCCCC(=O)N[C@@H](CCCCNC(=O)c1cccc(I)c1)C(=O)N1CCC[C@H]1C(=O)N1CCC[C@H]1C(=O)N1CCC[C@H]1C(=O)N[C@@H](CO)C(=O)NCC(=O)Nc1ccc(C(=O)N[C@@H](CO)C(=O)NCC(=O)N[C@H]2CSCc3cc4cc(c3)CSC[C@@H](NC(=O)[C@H](CCC(N)=O)NC(=O)[C@@H]3CCCN3C(=O)[C@H](Cc3c[nH]cn3)NC2=O)C(=O)N[C@@H](CCCNC(=N)N)C(=O)NCC(=O)N[C@@H](CC(=O)O)C(=O)N[C@@H](C(N)=O)CSC4)cc1", "note": "[[^125I]bcRGDpal] (Palmitoyl-K(Benzoyl(3-I))PPPSG[4Abz]SGCHPQ[dC]RGD[dC]-NH2; linker 10-14-18 via TBMB)", "values": [{"measurement": "tissue uptake at 5 min", "setting": "[1]", "value": "1.4 ± 0.2", "unit": "%ID/g"}, {"measurement": "tissue uptake at 0.5 h", "setting": "[1]", "value": "3.4 ± 0.5", "unit": "%ID/g"}, {"measurement": "tissue uptake at 1 h", "setting": "[1]", "value": "4 ± 0.5", "unit": "%ID/g"}, {"measurement": "tissue uptake at 2 h", "setting": "[1]", "value": "3.9 ± 0.2", "unit": "%ID/g"}, {"measurement": "tissue uptake at 6 h", "setting": "[1]", "value": "2.1 ± 0.4", "unit": "%ID/g"}, {"measurement": "tissue uptake at 12 h", "setting": "[1]", "value": "0.9 ± 0.1", "unit": "%ID/g"}, {"measurement": "tissue uptake at 24 h", "setting": "[1]", "value": "0.3 ± 0.1", "unit": "%ID/g"}, {"measurement": "tissue to tissue ratio", "setting": "U-87 MG tumor/blood, all time points (5 min to 24 h)", "value": "< 1"}, {"measurement": "tissue uptake at 5 min", "setting": "[2]", "value": "15.6 ± 1", "unit": "%ID/g"}, {"measurement": "tissue uptake at 0.5 h", "setting": "[2]", "value": "12.2 ± 0.8", "unit": "%ID/g"}, {"measurement": "tissue uptake at 1 h", "setting": "[2]", "value": "9.9 ± 0.5", "unit": "%ID/g"}, {"measurement": "tissue uptake at 2 h", "setting": "[2]", "value": "7.8 ± 0.4", "unit": "%ID/g"}, {"measurement": "tissue uptake at 6 h", "setting": "[2]", "value": "4.5 ± 0.4", "unit": "%ID/g"}, {"measurement": "tissue uptake at 12 h", "setting": "[2]", "value": "2 ± 0.3", "unit": "%ID/g"}, {"measurement": "tissue uptake at 24 h", "setting": "[2]", "value": 0.5, "unit": "%ID/g"}, {"measurement": "tissue uptake at 5 min", "setting": "[3]", "value": "1.4 ± 0.1", "unit": "%ID/g"}, {"measurement": "tissue uptake at 0.5 h", "setting": "[3]", "value": "1.7 ± 0.6", "unit": "%ID/g"}, {"measurement": "tissue uptake at 1 h", "setting": "[3]", "value": "1.1 ± 0.3", "unit": "%ID/g"}, {"measurement": "tissue uptake at 2 h", "setting": "[3]", "value": "1.3 ± 0.4", "unit": "%ID/g"}, {"measurement": "tissue uptake at 6 h", "setting": "[3]", "value": "0.7 ± 0.1", "unit": "%ID/g"}, {"measurement": "tissue uptake at 12 h", "setting": "[3]", "value": 0.4, "unit": "%ID/g"}, {"measurement": "tissue uptake at 24 h", "setting": "[3]", "value": "0.1 ± 0.1", "unit": "%ID/g"}, {"measurement": "tissue uptake at 5 min", "setting": "[4]", "value": "0.5 ± 0.1", "unit": "%ID/g"}, {"measurement": "tissue uptake at 0.5 h", "setting": "[4]", "value": "0.3 ± 0.1", "unit": "%ID/g"}, {"measurement": "tissue uptake at 1 h", "setting": "[4]", "value": 0.3, "unit": "%ID/g"}, {"measurement": "tissue uptake at 2 h", "setting": "[4]", "value": 0.2, "unit": "%ID/g"}, {"measurement": "tissue uptake at 6 h", "setting": "[4]", "value": 0.1, "unit": "%ID/g"}, {"measurement": "tissue uptake at 12 h", "setting": "[4]", "value": 0.1, "unit": "%ID/g"}, {"measurement": "tissue uptake at 5 min", "setting": "[5]", "value": "6.6 ± 0.1", "unit": "%ID/g"}, {"measurement": "tissue uptake at 0.5 h", "setting": "[5]", "value": "4.7 ± 0.4", "unit": "%ID/g"}, {"measurement": "tissue uptake at 1 h", "setting": "[5]", "value": "4.3 ± 0.3", "unit": "%ID/g"}, {"measurement": "tissue uptake at 2 h", "setting": "[5]", "value": "3.1 ± 0.2", "unit": "%ID/g"}, {"measurement": "tissue uptake at 6 h", "setting": "[5]", "value": 1.7, "unit": "%ID/g"}, {"measurement": "tissue uptake at 12 h", "setting": "[5]", "value": "0.8 ± 0.1", "unit": "%ID/g"}, {"measurement": "tissue uptake at 24 h", "setting": "[5]", "value": 0.2, "unit": "%ID/g"}, {"measurement": "tissue uptake at 5 min", "setting": "[6]", "value": "9 ± 0.2", "unit": "%ID/g"}, {"measurement": "tissue uptake at 0.5 h", "setting": "[6]", "value": "8.3 ± 0.9", "unit": "%ID/g"}, {"measurement": "tissue uptake at 1 h", "setting": "[6]", "value": "7.7 ± 0.2", "unit": "%ID/g"}, {"measurement": "tissue uptake at 2 h", "setting": "[6]", "value": "6.7 ± 0.6", "unit": "%ID/g"}, {"measurement": "tissue uptake at 6 h", "setting": "[6]", "value": "4.2 ± 0.6", "unit": "%ID/g"}, {"measurement": "tissue uptake at 12 h", "setting": "[6]", "value": "1.7 ± 0.2", "unit": "%ID/g"}, {"measurement": "tissue uptake at 24 h", "setting": "[6]", "value": 0.4, "unit": "%ID/g"}, {"measurement": "tissue uptake at 5 min", "setting": "[7]", "value": "0.9 ± 0.1", "unit": "%ID/g"}, {"measurement": "tissue uptake at 0.5 h", "setting": "[7]", "value": "1.4 ± 0.2", "unit": "%ID/g"}, {"measurement": "tissue uptake at 1 h", "setting": "[7]", "value": "1.4 ± 0.1", "unit": "%ID/g"}, {"measurement": "tissue uptake at 2 h", "setting": "[7]", "value": "6.9 ± 1.1", "unit": "%ID/g"}, {"measurement": "tissue uptake at 6 h", "setting": "[7]", "value": "11.8 ± 2", "unit": "%ID/g"}, {"measurement": "tissue uptake at 12 h", "setting": "[7]", "value": "7.5 ± 0.8", "unit": "%ID/g"}, {"measurement": "tissue uptake at 24 h", "setting": "[7]", "value": "2.3 ± 1.1", "unit": "%ID/g"}, {"measurement": "tissue uptake at 5 min", "setting": "[8]", "value": "17.6 ± 0.9", "unit": "%ID/g"}, {"measurement": "tissue uptake at 0.5 h", "setting": "[8]", "value": "19 ± 2.1", "unit": "%ID/g"}]}
